# Results published in PubChem BioAssay (NCI).
#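 Growth conditions: 96-well plates. Treatment: test compound, 48 hours, 5 concentrations. Analysis: linear interpolation between bracketing concentrations; unreached endpoints set to highest concentration. GI50 marks 50% less growth. At the TGI there is no net growth.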
# Legend:
# Experiment in all cases: inhibition of tumour cell growth, NCI panel, 48 h
# UACC-257 melanoma = test system: UACC-257 melanoma
# MDA-MB-468 breast = test system: MDA-MB-468 breast
# OVCAR-8 ovarian = test system: OVCAR-8 ovarian
# SK-MEL-28 melanoma = test system: SK-MEL-28 melanoma
# TK-10 renal = test system: TK-10 renal
# OVCAR-4 ovarian = test system: OVCAR-4 ovarian
# A549 NSCLC = test system: A549 NSCLC
# MDA-MB-435 = test system: MDA-MB-435
# MOLT-4 leukemia = test system: MOLT-4 leukemia
# SF-539 CNS = test system: SF-539 CNS
# T-47D breast = test system: T-47D breast
# HCT-116 colon = test system: HCT-116 colon
# PC-3 prostate = test system: PC-3 prostate
# U251 CNS = test system: U251 CNS
# SK-MEL-5 melanoma = test system: SK-MEL-5 melanoma
# 786-0 renal = test system: 786-0 renal
# ACHN renal = test system: ACHN renal
# SN12C renal = test system: SN12C renal
# SR leukemia = test system: SR leukemia
# CCRF-CEM leukemia = test system: CCRF-CEM leukemia
# CAKI-1 renal = test system: CAKI-1 renal
# COLO 205 colon = test system: COLO 205 colon
# SF-268 CNS = test system: SF-268 CNS
# SW-620 colon = test system: SW-620 colon
# EKVX NSCLC = test system: EKVX NSCLC
# MCF7 breast = test system: MCF7 breast
# DU-145 prostate = test system: DU-145 prostate
# NCI-H460 lung = test system: NCI-H460 lung
# SK-OV-3 ovarian = test system: SK-OV-3 ovarian
# K-562 leukemia = test system: K-562 leukemia
# NCI-H23 lung = test system: NCI-H23 lung
# SNB-19 CNS = test system: SNB-19 CNS
# SK-MEL-2 melanoma = test system: SK-MEL-2 melanoma
# SNB-75 CNS = test system: SNB-75 CNS
# A498 renal = test system: A498 renal
# MDA-MB-231 breast = test system: MDA-MB-231 breast
# NCI-H226 lung = test system: NCI-H226 lung
# HCT-15 colon = test system: HCT-15 colon
# KM12 colon = test system: KM12 colon
# M14 melanoma = test system: M14 melanoma
# UACC-62 melanoma = test system: UACC-62 melanoma
# OVCAR-5 ovarian = test system: OVCAR-5 ovarian
# NCI-H522 lung = test system: NCI-H522 lung
# UO-31 renal = test system: UO-31 renal
# SF-295 CNS = test system: SF-295 CNS
# HCC-2998 colon = test system: HCC-2998 colon
# HS 578T breast = test system: HS 578T breast
# OVCAR-3 ovarian = test system: OVCAR-3 ovarian
# RPMI-8226 leukemia = test system: RPMI-8226 leukemia
# LOX IMVI melanoma = test system: LOX IMVI melanoma
# RXF 393 renal = test system: RXF 393 renal
# HOP-62 NSCLC = test system: HOP-62 NSCLC
# HOP-92 NSCLC = test system: HOP-92 NSCLC
# IGROV1 ovarian = test system: IGROV1 ovarian
# BT-549 breast = test system: BT-549 breast
# MALME-3M melanoma = test system: MALME-3M melanoma
# HT29 colon = test system: HT29 colon
# HL-60(TB) leukemia = test system: HL-60(TB) leukemia
smiles,measurement,setting,value
CN(C)c1ccnc(NCCCSC(c2ccccc2)(c2ccccc2)c2ccccc2)c1,GI50,UACC-257 melanoma,3.07 µM
same,TGI,UACC-257 melanoma,11.6 µM
same,GI50,MDA-MB-468 breast,2.01 µM
same,TGI,MDA-MB-468 breast,5.63 µM
same,GI50,OVCAR-8 ovarian,10.3 µM
same,TGI,OVCAR-8 ovarian,28 µM
same,GI50,SK-MEL-28 melanoma,1.75 µM
same,TGI,SK-MEL-28 melanoma,3.74 µM
same,GI50,TK-10 renal,12.4 µM
same,TGI,TK-10 renal,25.4 µM
same,GI50,OVCAR-4 ovarian,11.8 µM
same,TGI,OVCAR-4 ovarian,29.8 µM
same,GI50,A549 NSCLC,7.35 µM
same,TGI,A549 NSCLC,21.6 µM
same,GI50,MDA-MB-435,8.6 µM
same,TGI,MDA-MB-435,20.9 µM
same,GI50,MOLT-4 leukemia,3.62 µM
same,TGI,MOLT-4 leukemia,15 µM
same,GI50,SF-539 CNS,6.82 µM
same,TGI,SF-539 CNS,21.9 µM
same,GI50,T-47D breast,11.4 µM
same,TGI,T-47D breast,29 µM
same,GI50,HCT-116 colon,3.97 µM
same,TGI,HCT-116 colon,17 µM
same,GI50,PC-3 prostate,4.41 µM
same,TGI,PC-3 prostate,16.3 µM
same,GI50,U251 CNS,7.78 µM
same,TGI,U251 CNS,21.7 µM
same,GI50,SK-MEL-5 melanoma,3.93 µM
same,TGI,SK-MEL-5 melanoma,14.2 µM
same,GI50,786-0 renal,9.86 µM
same,TGI,786-0 renal,25.8 µM
same,GI50,ACHN renal,8.67 µM
same,TGI,ACHN renal,24.8 µM
same,GI50,SN12C renal,11.1 µM
same,TGI,SN12C renal,25.8 µM
same,GI50,SR leukemia,2.76 µM
same,TGI,SR leukemia,7.84 µM
same,GI50,CCRF-CEM leukemia,3.94 µM
same,TGI,CCRF-CEM leukemia,17 µM
same,GI50,CAKI-1 renal,7.48 µM
same,TGI,CAKI-1 renal,21 µM
same,GI50,COLO 205 colon,1.87 µM
same,TGI,COLO 205 colon,3.44 µM
same,GI50,SF-268 CNS,14.5 µM
same,TGI,SF-268 CNS,30.5 µM
same,GI50,SW-620 colon,4.42 µM
same,TGI,SW-620 colon,16.1 µM
same,GI50,EKVX NSCLC,14.2 µM
same,TGI,EKVX NSCLC,29.6 µM
same,GI50,MCF7 breast,3.96 µM
same,TGI,MCF7 breast,16.6 µM
same,GI50,DU-145 prostate,11 µM
same,TGI,DU-145 prostate,23 µM
same,GI50,NCI-H460 lung,4.85 µM
same,TGI,NCI-H460 lung,17.1 µM
same,GI50,SK-OV-3 ovarian,13.5 µM
same,TGI,SK-OV-3 ovarian,26.8 µM
same,GI50,K-562 leukemia,2.88 µM
same,TGI,K-562 leukemia,10.4 µM
same,GI50,NCI-H23 lung,12.9 µM
same,TGI,NCI-H23 lung,26.3 µM
same,GI50,SNB-19 CNS,15.9 µM
same,TGI,SNB-19 CNS,31.5 µM
same,GI50,SK-MEL-2 melanoma,16.6 µM
same,TGI,SK-MEL-2 melanoma,30.7 µM
same,GI50,SNB-75 CNS,11.9 µM
same,TGI,SNB-75 CNS,24.3 µM
same,GI50,A498 renal,14.9 µM
same,TGI,A498 renal,29 µM
same,GI50,MDA-MB-231 breast,5.71 µM
same,TGI,MDA-MB-231 breast,20.2 µM
same,GI50,NCI-H226 lung,10.9 µM
same,TGI,NCI-H226 lung,28.1 µM
same,GI50,HCT-15 colon,5.19 µM
same,TGI,HCT-15 colon,19.6 µM
same,GI50,KM12 colon,5.57 µM
same,TGI,KM12 colon,17.8 µM
same,GI50,M14 melanoma,3.81 µM
same,TGI,M14 melanoma,13.3 µM
same,GI50,UACC-62 melanoma,7.5 µM
same,TGI,UACC-62 melanoma,21.6 µM
same,GI50,OVCAR-5 ovarian,11.9 µM
same,TGI,OVCAR-5 ovarian,26 µM
same,GI50,NCI-H522 lung,12 µM
same,TGI,NCI-H522 lung,26.6 µM
same,GI50,UO-31 renal,5.4 µM
same,TGI,UO-31 renal,21.1 µM
same,GI50,SF-295 CNS,11.4 µM
same,TGI,SF-295 CNS,26.2 µM
same,GI50,HCC-2998 colon,2.55 µM
same,TGI,HCC-2998 colon,7.13 µM
same,GI50,HS 578T breast,11.3 µM
same,TGI,HS 578T breast,35.3 µM
same,GI50,OVCAR-3 ovarian,7.26 µM
same,TGI,OVCAR-3 ovarian,20.2 µM
same,GI50,RPMI-8226 leukemia,3.43 µM
same,TGI,RPMI-8226 leukemia,12.3 µM
same,GI50,LOX IMVI melanoma,2.96 µM
same,TGI,LOX IMVI melanoma,10.6 µM
same,GI50,RXF 393 renal,2.58 µM
same,TGI,RXF 393 renal,9.7 µM
same,GI50,HOP-62 NSCLC,14.5 µM
same,TGI,HOP-62 NSCLC,29.2 µM
same,GI50,HOP-92 NSCLC,3.3 µM
same,TGI,HOP-92 NSCLC,15.8 µM
same,GI50,IGROV1 ovarian,11.4 µM
same,TGI,IGROV1 ovarian,27.9 µM
same,GI50,BT-549 breast,11.5 µM
same,TGI,BT-549 breast,25 µM
same,GI50,MALME-3M melanoma,1.55 µM
same,TGI,MALME-3M melanoma,3.19 µM
same,GI50,HT29 colon,3 µM
same,TGI,HT29 colon,10.7 µM
same,GI50,HL-60(TB) leukemia,3.06 µM
same,TGI,HL-60(TB) leukemia,10.5 µM
